# According to patent US20240158447A1, “PEPTIDES FOR USE IN THE TREATMENT OR PREVENTION OF MYOCARDIAL DAMAGE” (THE UNIVERSITY OF WESTERN AUSTRALIA, priority 2020, published 2024):
# Entries after “also recorded” stand apart in the source; their conditions may differ.
# Assays:
# [1] = target: T1, L-type Ca^2+ channel β2 subunit (Homo sapiens, UniProt Q08289); test: Binding competition assay of variant peptides for the β2 subunit (AID-coated beads, heart lysate, SDS-PAGE); conditions: competition with bead-bound AID peptide, whole heart lysate, immunoblot densitometry; FIG. 2
# T1 construct: from tissue; host or cells: whole heart (cardiac) lysate
# T1 sequence (Q08289 whole entry): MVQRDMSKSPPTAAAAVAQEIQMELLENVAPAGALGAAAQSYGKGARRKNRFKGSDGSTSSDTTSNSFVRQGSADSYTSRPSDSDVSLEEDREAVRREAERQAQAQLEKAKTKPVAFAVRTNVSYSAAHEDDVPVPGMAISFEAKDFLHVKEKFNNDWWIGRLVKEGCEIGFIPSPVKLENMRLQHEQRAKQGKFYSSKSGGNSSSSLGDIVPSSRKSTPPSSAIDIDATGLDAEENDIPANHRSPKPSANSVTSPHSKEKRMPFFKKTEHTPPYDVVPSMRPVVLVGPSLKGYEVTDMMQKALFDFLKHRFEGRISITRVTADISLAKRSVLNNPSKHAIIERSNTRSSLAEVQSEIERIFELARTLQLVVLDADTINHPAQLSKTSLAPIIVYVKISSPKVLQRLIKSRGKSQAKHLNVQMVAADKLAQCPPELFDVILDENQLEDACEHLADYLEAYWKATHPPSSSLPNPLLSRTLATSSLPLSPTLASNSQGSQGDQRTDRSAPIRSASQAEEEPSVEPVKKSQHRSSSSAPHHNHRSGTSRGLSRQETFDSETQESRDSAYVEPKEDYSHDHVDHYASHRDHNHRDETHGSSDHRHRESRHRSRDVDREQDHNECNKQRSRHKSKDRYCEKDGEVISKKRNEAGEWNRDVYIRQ
# Experimental: The affinity of each of the variant peptides to the β2 subunit was investigated through binding competition assays.
# PureProteome™ NHS FlexiBind Magnetic Beads (Cat. #LSKMAGN04, Merck) were used following manufacturer recommendations. Aminohexanoic acid linked AID peptide was bound to the NHS flexibind magnetic beads at a concentration of more than 2 mg/mL to obtain saturation of the beads with peptide. Beads were first primed with an equilibration buffer (1 mM HCL) to prepare them for binding. The Ahx-AID peptide was dissolved in wash/coupling buffer (PBS, pH 7.4) and added to the beads. The beads-AID peptide mixture was left to mix uniformly on a multiplate shaker at a speed of 300 rpm at room temperature for 2 hours. To reduce non-specific binding the beads were incubated in Quench Buffer (100 mM Tris-HCl, 150 mM NaCl, pH 8.0) at room temperature for 1 hour.
# The AID-peptide bound beads were split into 5 aliquots for the 5 samples prepared in Table 5. The whole heart lysate added to each of the peptide-bound beads to allow competitive binding for 2 hours at room temperature.
# Upon completion, the conjugate was washed in coupling buffer, to remove unbound fraction. SDS sample buffer was added to the beads, with the tubes then heated for 5 minutes at 95° C. The eluted sample stored at −20° C. to be run through sodium dodecyl sulfate-polyacrymalide gel electrophoresis (SDS-PAGE) to determine the binding affinity of each of the variants.
# The use of streptavidin dynabeads and biotinylated peptide was developed to improve the binding affinity assays. The peptide was initially biotinylated using EZ-link amine-PEG11-biotin (Spacer arm: 53.2 Å, Thermofisher Scientific, Cat. #26136) which was dissolved in 0.1M MES buffer ((2-N-morpholino)-ethanesulfonic acid) at a concentration of 1 mM. Just prior to the reaction, 0.1M EDC (N-(3-Dimethylaminopropyl)-N′-ethylcarbodiimide hydrochloride) was dissolved in MES buffer. In order to achieve complete biotinylation of the AID peptide, a 50× molar excess of biotin to peptide was required, with the total volumes of each component required shown in Table 6.
# Each 78 μL aliquot of the biotinylated peptide shown in […] was enough for 6 reactions, covering the range of concentrations in which the heart lysate was again prepared with varying concentrations of the variant AID peptides according to Table 7.
# The 78 μL aliquot of biotinylated AID-peptide was mixed with streptavidin dynabeads (1 mg Dynabeads per every 200 pmol biotinylated peptide) for half an hour at room temperature. The heart lysate ([…]) was incubated with the variant peptides at room temperature for 2 hours. After removing all unbound peptide from the beads, they were mixed with the pre-bound heart lysate for 2 hours at room temperature. The unbound fraction was removed. […]
# [2] = test system: wild type cardiac myocytes; test: Intracellular superoxide (DHE) after H2O2 in cardiac myocytes; assay type: cell-based, mouse; conditions: 20 min incubation with 0.5-1 μM peptide; 30 μM H2O2 5 min; FIG. 3(b)
# Experimental: (§1) Adult male C57BL/6J mice were anesthetized with pentobarbitone sodium (240 mg/kg) via intraperitoneal injection prior to excision of the heart. Ventricular myocytes were isolated. Mouse hearts were cannulated onto a Langendorff apparatus via the aorta and perfused retrogradely with Krebs-Henseleit Buffer (KHB) containing (in mM): 120 NaCl, 25 NaHCO3, 4.8 KCl, 2.2 MgSO4, 1.2 NaH2PO4 and 11 glucose (pH=7.35 with O2/CO2 at 37° C.) for 4 min at 37° C. Hearts were then perfused with KHB supplemented with 2.4 mg/ml collagenase B for 3 min, then 8 min perfusion in the presence of 40 μM calcium. Following perfusion, aorta and atria were removed, and ventricles gently teased apart and triturated to dissociate myocytes into suspension. […]
# (§2) All in vitro studies were performed in freshly isolated myocytes at 37° C. […] Following a 20 min incubation with 0.5-1 μM AID(S)-TAT, AID-TAT, peptide 6 or peptide 7, fluorescent signal of individual myocytes was quantified using Metamorph 6.3 to measure signal intensity of manually traced cell regions. […]
# Superoxide generation was assessed in cardiac myocytes using the fluorescent indicator dihydroethidium (DHE, 5 μM, 515-560 nm ex filter, 590 long pass em, Merck). […] Fluorescence was reported as percentage change in the slope of the signal measured at 20-40 min (treatment) over 1-10 min (pre-treatment).
# [3] = test system: wildtype cardiac myocytes; test: Mitochondrial flavoprotein oxidation after BayK(−), wildtype cardiac myocytes (Example 6); assay type: cell-based, mouse; conditions: wild type hearts, FIG. 4
# Experimental: as §1, §2
# Autofluorescence was used to measure flavoprotein oxidation in cardiac myocytes based on previously described methods (480 nm ex, 535 nm em). […] Fluorescence was reported as a percentage from the baseline pre-treatment average.
# [4] = test system: myocytes isolated from cTnI-G203S mutant mouse hearts; test: Mitochondrial flavoprotein oxidation after BayK(−), myocytes from HCM hearts (Example 6); assay type: cell-based; conditions: FIG. 5
# Experimental: FIG. 5 presents the effect of mutant peptides on flavoprotein oxidation, a measure of metabolic activity and oxygen consumption in myocytes isolated from cTnI-G203S mutant mouse hearts that are hypertrophic.
# All in vitro studies were performed in freshly isolated myocytes at 37° C. […] Following a 20 min incubation with 0.5-1 μM AID(S)-TAT, AID-TAT, peptide 6 or peptide 7, fluorescent signal of individual myocytes was quantified using Metamorph 6.3 to measure signal intensity of manually traced cell regions. An equivalent region not containing cells was used for background and was subtracted.
# Autofluorescence was used to measure flavoprotein oxidation in cardiac myocytes based on previously described methods (480 nm ex, 535 nm em). Fluorescent images were taken at 1 min intervals with 1 s exposure before and after exposure to L-type Ca2+ channel agonist BayK(−). Fluorescence was reported as a percentage from the baseline pre-treatment average.
# [5] = test system: wild type cardiac myocytes; test: Intracellular calcium (Fura-2) after H2O2 in cardiac myocytes; assay type: cell-based, mouse; conditions: 20 min incubation with 0.5-1 μM peptide; 30 μM H2O2 5 min; FIG. 3(a)
# Experimental: as §1, with “calcium.” for “calcium. Following perfusion, aorta and atria were removed, and ventricles gently teased apart and triturated to dissociate myocytes into suspension.”
# as §2
# Intracellular calcium was monitored in cardiac myocytes using the fluorescent indicator Fura-2 AM (Fura-2, 1 μM, ex 340/380 nm, em 510 nm, Molecular Probes). […] Fluorescence at 340/380 nm excitation and 510 nm emission were measured at 1 minute intervals with an exposure of 50 ms before and after exposure to 30 μM H2O2 (5 min) and 10 U/ml catalase (5 min). Ratiometric 340/380 nm signal was quantified and reported as a percentage from the baseline pre-treatment average.
sequence,measurement,setting,value
QQQEEDLKGYLDWITQAE (Variant P7),binding affinity (K0.5) for the target β2 subunit versus the original AID peptide,[1],greater binding affinity (lower K0.5)
same,H2O2 induced superoxide production (DHE),[2],more effective at decreasing H2O2 induced increases in intracellular Ca^2+ (Fura 2) and superoxide production (DHE) than AID-TAT
same,flavoprotein oxidation in comparison with AID-TAT peptide,[3],statistically significant reduction in flavoprotein oxidation in comparison with AID-TAT peptide
same,flavoprotein oxidation in comparison with AID-TAT peptide,[4],statistically significant reduction in flavoprotein oxidation in comparison with AID-TAT peptide
same,H2O2 induced increase in intracellular Ca2+ (Fura 2),[5],altered the increase in Fura 2 following H2O2; also recorded: more effective at decreasing H2O2 induced increases in intracellular Ca^2+ (Fura 2) and superoxide production (DHE) than AID-TAT
